We go through two compounds from patent US10228380B2, “Methods for targeting membrane steroid transporters” (priority 2018, dated 2019).

For experiment [1], the target named is T1, EcR (Drosophila melanogaster, UniProt P34021).
T1 construct: endogenous in cells; host or cells: Drosophila S2 culture cells
T1 sequence (P34021 1-878): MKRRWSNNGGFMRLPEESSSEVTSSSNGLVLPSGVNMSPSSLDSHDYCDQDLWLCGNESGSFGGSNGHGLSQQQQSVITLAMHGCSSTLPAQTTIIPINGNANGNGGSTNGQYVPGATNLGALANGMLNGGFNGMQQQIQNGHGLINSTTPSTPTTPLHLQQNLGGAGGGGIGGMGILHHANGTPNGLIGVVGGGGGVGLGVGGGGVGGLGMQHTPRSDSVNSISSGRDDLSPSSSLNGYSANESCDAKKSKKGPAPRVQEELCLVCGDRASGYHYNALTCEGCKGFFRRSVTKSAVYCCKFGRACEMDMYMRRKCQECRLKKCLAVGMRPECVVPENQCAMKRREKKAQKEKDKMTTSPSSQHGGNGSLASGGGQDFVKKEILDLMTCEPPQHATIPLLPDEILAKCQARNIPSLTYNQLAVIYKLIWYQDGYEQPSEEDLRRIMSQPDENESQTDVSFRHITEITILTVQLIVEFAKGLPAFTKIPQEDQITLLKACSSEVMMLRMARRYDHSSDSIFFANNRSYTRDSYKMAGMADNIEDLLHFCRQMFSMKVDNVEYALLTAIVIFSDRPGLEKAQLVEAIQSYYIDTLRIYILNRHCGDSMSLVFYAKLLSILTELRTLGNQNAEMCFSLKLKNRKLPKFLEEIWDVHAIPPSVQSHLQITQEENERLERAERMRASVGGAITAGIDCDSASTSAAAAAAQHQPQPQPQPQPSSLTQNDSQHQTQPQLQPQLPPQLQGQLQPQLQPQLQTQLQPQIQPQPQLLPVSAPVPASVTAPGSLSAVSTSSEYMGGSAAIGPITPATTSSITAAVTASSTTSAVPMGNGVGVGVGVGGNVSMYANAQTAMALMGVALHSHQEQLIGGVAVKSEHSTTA
T1 sequence (P20153 1-508 partner): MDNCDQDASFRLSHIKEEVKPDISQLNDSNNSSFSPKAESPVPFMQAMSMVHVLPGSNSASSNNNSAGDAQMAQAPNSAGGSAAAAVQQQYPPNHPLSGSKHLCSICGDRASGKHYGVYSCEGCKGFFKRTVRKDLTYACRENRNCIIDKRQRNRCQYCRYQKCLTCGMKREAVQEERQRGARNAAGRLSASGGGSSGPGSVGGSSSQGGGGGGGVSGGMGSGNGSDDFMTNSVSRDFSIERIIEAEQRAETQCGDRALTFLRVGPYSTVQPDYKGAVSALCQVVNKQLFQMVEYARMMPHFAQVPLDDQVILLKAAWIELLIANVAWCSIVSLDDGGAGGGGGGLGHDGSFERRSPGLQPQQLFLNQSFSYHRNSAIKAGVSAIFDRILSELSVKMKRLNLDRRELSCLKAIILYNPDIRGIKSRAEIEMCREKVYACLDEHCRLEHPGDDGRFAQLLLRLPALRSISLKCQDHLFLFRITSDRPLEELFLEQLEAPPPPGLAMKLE
Nature of the experiment: luciferase reporter assay in S2 culture cells with or without EcI RNAi. It is filed as cell-based, D. melanogaster. The conditions noted are these: for effect of EcI RNAi treatment on the cells' response as measured by the luciferase assay: S2 culture cells, varying concentrations, 24 hours, EcI RNAi vs control cells without RNAi. The method, then: FIG. 3 is a graph of the fold change of D. melanogaster EcR response after incubation of S2 culture cells for 24 hours in varying concentrations of 20E (left graph) or chromafenozide (CF; middle graph), as measured by luciferase reporter assay. The right graph is a time-course analysis of EcR-mediated luciferase activity in S2 culture cells treated with 10^−7M of 20E. In each graph, the control data is the solid top line, and the dashed bottom line is data of cells treated with EcI RNAi. Each point represents mean±SD; * indicates p<0.05 from Student's t-test compared to control; ** indicates p<0.01 from Student's t-test compared to control.
FIG. 5A depicts a schematic of a luciferase reporter assay in a cell derived from an arthropod cell line, for determining transport of 20E by the membrane steroid hormone transporter encoded by ecdysone importer (EcI).
As described above, in some embodiments, the transcriptional activity of a steroid hormone nuclear receptor is used to evaluate the transport of a steroid hormone across the cell membrane of an initial cell, or a comparative cell. In some variations, the luciferase reporter assay is used to measure the transcriptional activity of the steroid hormone nuclear receptor. For example, with reference to FIG. 5A and FIG. 5B, depicted are schemes showing the use of a luciferase reporter assay in an S2 cell (FIG. 5A) or in a HEK cell (FIG. 5B) to evaluate the transcriptional activity of the nuclear receptor encoded by the gene ecdysone receptor (EcR).
S2 culture cells treated with EcI RNAi were incubated with varying concentrations of 20E or with chromafenozide (CF) for 24 hours, and their response was monitored using a luciferase reporter assay. The relative response of the treated cells was compared to control cells, which were incubated with 20E or CF but not treated with RNAi. […] CF is a non-steroidal EcR agonist, and is expected to enter the cells through an unknown transporter distinct from EcI.

Experiment [2] concerns the target T2, EcI and EcR (Drosophila melanogaster, UniProt P34021).
T2 construct: expressed in transfected cells; host or cells: human HEK cells
T2 sequence (P34021 1-878): T1 sequence (P34021 1-878)
Nature of the experiment: luciferase reporter assay in HEK culture cells transfected with EcR or with EcI and EcR. It is filed as cell-based, D. melanogaster. The conditions noted are these: varying concentrations, 24 hours. The method, then: FIG. 4 is a relative luciferase reporter activity in HEK culture cells treated for 24 h with 20E. Response of the cells transfected with EcR is the solid bottom line; cells transfected with EcR and EcI is the dashed top line. Each point represents mean±SEM; ** indicates p<0.01 from Student's t-test compared to control.
FIG. 5B depicts a schematic of a luciferase reporter assay in a cell derived from a mammalian cell line, for determining transport of 20E by the membrane steroid hormone transporter encoded by ecdysone importer (EcI).
As described above, in some embodiments, the transcriptional activity of a steroid hormone nuclear receptor is used to evaluate the transport of a steroid hormone across the cell membrane of an initial cell, or a comparative cell. In some variations, the luciferase reporter assay is used to measure the transcriptional activity of the steroid hormone nuclear receptor. […]
Human HEK cells were transfected with EcI and EcR, and their response to incubation with varying concentrations of 20E for 24 hours was evaluated using the luciferase reporter assay. Control HEK cells that were transfected only with EcR were also evaluated.

For the compound `CC(C)(O)CC[C@@H](O)[C@](C)(O)[C@H]1CC[C@@]2(O)C3=CC(=O)[C@@H]4C[C@@H](O)[C@@H](O)C[C@]4(C)[C@H]3CC[C@]12C` [20E, 20-hydroxyecdysone], the “effect of EcI RNAi treatment on the cells' response over time (time-course of luciferase activity)” value in experiment [1] (S2 cells treated with 10^−7 M, with or without RNAi) is on record as “significantly decreased”. Besides, in experiment [1], the “effect of EcI RNAi treatment on the cells' response as measured by the luciferase assay” value is recorded as “significantly decreased”. Also, the “response as measured by luciferase assay” value is recorded as “not responsive” in experiment [2] (control human HEK cells transfected only with EcR); “responsive” in experiment [2] (human HEK cells transfected with both EcI and EcR).

In the case of `Cc1cc(C)cc(C(=O)N(NC(=O)c2ccc3c(c2C)CCCO3)C(C)(C)C)c1` [CF, chromafenozide], the “effect of EcI RNAi treatment on the cells' response as measured by the luciferase assay” value in experiment [1] is on record as “less effect”.
